# Results taken from patent US10676471B2, “Cycloalkyl-linked diheterocycle derivatives” (Pfizer Inc., priority 2014, dated 2020).
# Tested on: BT20 Cell
# Experiment: Cancer Cell Lysate Total L-Glutamate Assay
# Assay type: cell-based
# Conditions: Homo sapiens, BT-20, 2 h, total L-glutamate in cell lysate, BT20 cells, 2 hour incubation with test compound
# Method in brief: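 BT20 and other cancer lines at ~80% confluence were given fresh L-glutamine-containing medium, then treated with serially diluted compound (0.5% DMSO) for 2 hours at 37° C. Washed cells were lysed by freeze-thaw and sonication. Lysate glutamate was measured via glutamate oxidase/HRP/50 μM Amplex Red fluorescence (ex 530-560, em 585 nm); IC50 by four-parameter logistic fit.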
row,IC50 [nM],SMILES
1,79.7,"CC(=O)Nc1nnc(C2CCC(Cc3nnc(NC(=O)Cc4ccccn4)s3)C2)s1 (racemic) [Example 18, (rac)-N-[5-({(cis)-3-[5-(acetylamino)-1,3,4-thiadiazol-2-yl]cyclopentyl}methyl)-1,3,4-thiadiazol-2-yl]-2-(pyridin-2-yl)acetamide]"
2,2370,"CC(=O)Nc1nnc(C2CCC(Cc3nnc(N)s3)C2)s1 (racemic) [Example 42, (rac)-N-(5-{(cis)-3-[(5-amino-1,3,4-thiadiazol-2-yl)methyl]cyclopentyl}-1,3,4-thiadiazol-2-yl)acetamide]"
3,2.4,"CCNc1nnc([C@H]2C[C@@H](Cc3ccc(NC(=O)Cc4ccccc4)nn3)C2)s1 (single isomer, unassigned) [Example 100, N-[6-({cis-3-[5-(ethylamino)-1,3,4-thiadiazol-2-yl]cyclobutyl}methyl)pyridazin-3-yl]-2-phenylacetamide]"
4,4.8,"O=C(Cc1ccccn1)Nc1nnc(C[C@H]2CC[C@@H](c3nnc(Nc4ccccn4)s3)C2)s1 (single isomer, unassigned) [Example 86, 2-(pyridin-2-yl)-N-[5-({(cis)-3-[5-(pyridin-2-ylamino)-1,3,4-thiadiazol-2-yl]cyclopentyl}methyl)-1,3,4-thiadiazol-2-yl]acetamide]"
5,21.4,"CC(=O)Nc1nnc(C[C@@H]2CC[C@H](c3nnc(NC(=O)Cc4ccccn4)s3)C2)s1 (single isomer, unassigned) [Example 57, N-{5-[(cis)-3-{[5-(acetylamino)-1,3,4-thiadiazol-2-yl]methyl}cyclopentyl]-1,3,4-thiadiazol-2-yl}-2-(pyridin-2-yl)acetamide]"
6,110,"CC(=O)Nc1nnc(C[C@H]2C[C@H](c3nnc(NC(C)=O)s3)C2)s1 (single isomer, unassigned) [Example 63, N-[5-({trans-3-[5-(acetylamino)-1,3,4-thiadiazol-2-yl]cyclobutyl}methyl)-1,3,4-thiadiazol-2-yl]acetamide]"
7,1.4,"O=C(Cc1ccccc1)Nc1nnc(C[C@@H]2CC[C@H](c3nnc(NC(=O)Cc4ccccc4)s3)C2)s1 (single isomer, unassigned) [Example 8]"
8,9.9,"O=C(Cc1ccccn1)Nc1nnc(C[C@H]2C[C@H](c3nnc(NC(=O)Cc4ccccn4)s3)C2)s1 (single isomer, unassigned) [Example 23, 2-(pyridin-2-yl)-N-{5-[(trans-3-{5-[(pyridin-2-ylacetyl)amino]-1,3,4-thiadiazol-2-yl}cyclobutyl)methyl]-1,3,4-thiadiazol-2-yl}acetamide]"
9,21.6,"O=C(Cc1ccccn1)Nc1nnc(C[C@H]2CC[C@@H](c3nnc(NC(=O)Cc4ccccn4)s3)C2)s1 (single isomer, unassigned) [Example 4]"
10,2.2,"O=C(Cc1ccccn1)Nc1ccc(CC2CCC(c3nnc(NC(=O)C[C@H]4CCCO4)s3)C2)nn1 (mixture of isomers) [Example 129, (rac)-2-(pyridin-2-yl)-N-(6-{[(cis)-3-(5-{[(2R)-tetrahydrofuran-2-ylacetyl]amino}-1,3,4-thiadiazol-2-yl)cyclopentyl]methyl}pyridazin-3-yl)acetamide]"
11,0.7,"O=C(Cc1ccccn1)Nc1nnc([C@@H]2CC[C@H](Cc3nnc(NC(=O)c4ccccc4F)s3)C2)s1 (racemic) [Example 144, (rac)-2-fluoro-N-(5-{[(cis)-3-{5-[(pyridin-2-ylacetyl)amino]-1,3,4-thiadiazol-2-yl}cyclopentyl]methyl}-1,3,4-thiadiazol-2-yl)benzamide]"
12,339,"CCNc1nnc([C@@H]2CC[C@H](Cc3ccc(NC(=O)Cc4ccccn4)nn3)C2)s1 (single isomer, unassigned) [Example 101, N-[6-({(cis)-3-[5-(ethylamino)-1,3,4-thiadiazol-2-yl]cyclopentyl}methyl)pyridazin-3-yl]-2-(pyridin-2-yl)acetamide]"
13,1.6,"O=C(Cc1ccccn1)Nc1nnc(C2CC3(C2)CC(c2nnc(NC(=O)Cc4ccccn4)s2)C3)s1 (racemic) [Example 61, N,N′-(spiro[3.3]heptane-2,6-diyldi-1,3,4-thiadiazole-5,2-diyl)bis[2-(pyridin-2-yl)acetamide]]"
14,399,"CC(=O)Nc1nnc(C2CC[C@H](Cc3nnc(NC(=O)Cc4ccccc4)s3)C2)s1 (single isomer, unassigned) [Example 16, N-[5-({(cis)-3-[5-(acetylamino)-1,3,4-thiadiazol-2-yl]cyclopentyl}methyl)-1,3,4-thiadiazol-2-yl]-2-phenylacetamide]"
15,6.5,"CC(=O)Nc1ccc(C[C@H]2C[C@@H](c3nnc(NC(=O)Cc4ccccn4)s3)C2)nn1 (single isomer, unassigned) [Example 114, N-[5-(cis-3-{[6-(acetylamino)pyridazin-3-yl]methyl}cyclobutyl)-1,3,4-thiadiazol-2-yl]-2-(pyridin-2-yl)acetamide]"
16,2,"CC(=O)Nc1nnc([C@H]2C[C@H](Cc3ccc(NC(=O)Cc4ccccn4)nn3)C2)s1 (single isomer, unassigned) [Example 115, N-[6-({trans-3-[5-(acetylamino)-1,3,4-thiadiazol-2-yl]cyclobutyl}methyl)pyridazin-3-yl]-2-(pyridin-2-yl)acetamide]"
17,104,"CC(=O)Nc1nnc(C[C@@H]2CC[C@H](c3nnc(NC(C)=O)s3)C2)s1 (single isomer, unassigned) [Example 5]"
18,4,"COCCC(=O)Nc1nnc([C@@H]2CC[C@H](Cc3ccc(NC(=O)Cc4ccccn4)nn3)C2)s1 (single isomer, unassigned) [Example 121, 3-methoxy-N-{5-[(cis)-3-({6-[(pyridin-2-ylacetyl)amino]pyridazin-3-yl}methyl)cyclopentyl]-1,3,4-thiadiazol-2-yl}propanamide]"
19,3.9,"Cn1ccc(Nc2nnc([C@H]3CC[C@@H](Cc4nnc(NC(=O)Cc5ccccn5)s4)C3)s2)n1 (single isomer, unassigned) [Example 89, N-(5-{[(cis)-3-{5-[(1-methyl-1H-pyrazol-3-yl)amino]-1,3,4-thiadiazol-2-yl}cyclopentyl]methyl}-1,3,4-thiadiazol-2-yl)-2-(pyridin-2-yl)acetamide]"
20,13.7,"CCC(=O)Nc1nnc([C@H]2C[C@H](Cc3nnc(NC(=O)Cc4ccccn4)s3)C2)s1 (single isomer, unassigned) [Example 106, N-{5-[trans-3-({5-[(pyridin-2-ylacetyl)amino]-1,3,4-thiadiazol-2-yl}methyl)cyclobutyl]-1,3,4-thiadiazol-2-yl}propanamide]"
21,10.1,"CC(=O)Nc1nnc(C[C@H]2C[C@@H](c3nnc(NC(=O)Cc4ccc(C)cn4)s3)C2)s1 (single isomer, unassigned) [Example 107, N-[5-(cis-3-{[5-(acetylamino)-1,3,4-thiadiazol-2-yl]methyl}cyclobutyl)-1,3,4-thiadiazol-2-yl]-2-(5-methylpyridin-2-yl)acetamide]"
22,3,"CC(C)C(=O)Nc1ccc(CC2CCC(c3nnc(NC(=O)Cc4ccccn4)s3)C2)nn1 (racemic) [Example 76, (rac)-2-methyl-N-(6-{[(cis)-3-{5-[(pyridin-2-ylacetyl)amino]-1,3,4-thiadiazol-2-yl}cyclopentyl]methyl}pyridazin-3-yl)propanamide]"
23,0.4,"CC(C)C(=O)Nc1nnc([C@H]2CC[C@@H](Cc3ccc(NC(=O)Cc4ccccn4)nn3)C2)s1 [Example 120, 2-methyl-N-{5-[(1S,3R)-3-({6-[(pyridin-2-ylacetyl)amino]pyridazin-3-yl}methyl)cyclopentyl]-1,3,4-thiadiazol-2-yl}propanamide]"
